Experimental data reported in US8148391B2 (Cephalon, Inc., priority 2006, dated 2012).
Read-outs that look alike come from different tables or passages of the source. Values belong to the compound of their own block, whether it stands above or below them.

Tests used:
[1] = biological target: T1, baculovirus-expressed ALK (Homo sapiens, UniProt Q9UM73); assay: ALK Kinase Assay (ELISA-type, time-resolved fluorescence); assay type: biochemical
T1 construct: host or cells: baculovirus expression system
T1 sequence (Q9UM73 19-1620): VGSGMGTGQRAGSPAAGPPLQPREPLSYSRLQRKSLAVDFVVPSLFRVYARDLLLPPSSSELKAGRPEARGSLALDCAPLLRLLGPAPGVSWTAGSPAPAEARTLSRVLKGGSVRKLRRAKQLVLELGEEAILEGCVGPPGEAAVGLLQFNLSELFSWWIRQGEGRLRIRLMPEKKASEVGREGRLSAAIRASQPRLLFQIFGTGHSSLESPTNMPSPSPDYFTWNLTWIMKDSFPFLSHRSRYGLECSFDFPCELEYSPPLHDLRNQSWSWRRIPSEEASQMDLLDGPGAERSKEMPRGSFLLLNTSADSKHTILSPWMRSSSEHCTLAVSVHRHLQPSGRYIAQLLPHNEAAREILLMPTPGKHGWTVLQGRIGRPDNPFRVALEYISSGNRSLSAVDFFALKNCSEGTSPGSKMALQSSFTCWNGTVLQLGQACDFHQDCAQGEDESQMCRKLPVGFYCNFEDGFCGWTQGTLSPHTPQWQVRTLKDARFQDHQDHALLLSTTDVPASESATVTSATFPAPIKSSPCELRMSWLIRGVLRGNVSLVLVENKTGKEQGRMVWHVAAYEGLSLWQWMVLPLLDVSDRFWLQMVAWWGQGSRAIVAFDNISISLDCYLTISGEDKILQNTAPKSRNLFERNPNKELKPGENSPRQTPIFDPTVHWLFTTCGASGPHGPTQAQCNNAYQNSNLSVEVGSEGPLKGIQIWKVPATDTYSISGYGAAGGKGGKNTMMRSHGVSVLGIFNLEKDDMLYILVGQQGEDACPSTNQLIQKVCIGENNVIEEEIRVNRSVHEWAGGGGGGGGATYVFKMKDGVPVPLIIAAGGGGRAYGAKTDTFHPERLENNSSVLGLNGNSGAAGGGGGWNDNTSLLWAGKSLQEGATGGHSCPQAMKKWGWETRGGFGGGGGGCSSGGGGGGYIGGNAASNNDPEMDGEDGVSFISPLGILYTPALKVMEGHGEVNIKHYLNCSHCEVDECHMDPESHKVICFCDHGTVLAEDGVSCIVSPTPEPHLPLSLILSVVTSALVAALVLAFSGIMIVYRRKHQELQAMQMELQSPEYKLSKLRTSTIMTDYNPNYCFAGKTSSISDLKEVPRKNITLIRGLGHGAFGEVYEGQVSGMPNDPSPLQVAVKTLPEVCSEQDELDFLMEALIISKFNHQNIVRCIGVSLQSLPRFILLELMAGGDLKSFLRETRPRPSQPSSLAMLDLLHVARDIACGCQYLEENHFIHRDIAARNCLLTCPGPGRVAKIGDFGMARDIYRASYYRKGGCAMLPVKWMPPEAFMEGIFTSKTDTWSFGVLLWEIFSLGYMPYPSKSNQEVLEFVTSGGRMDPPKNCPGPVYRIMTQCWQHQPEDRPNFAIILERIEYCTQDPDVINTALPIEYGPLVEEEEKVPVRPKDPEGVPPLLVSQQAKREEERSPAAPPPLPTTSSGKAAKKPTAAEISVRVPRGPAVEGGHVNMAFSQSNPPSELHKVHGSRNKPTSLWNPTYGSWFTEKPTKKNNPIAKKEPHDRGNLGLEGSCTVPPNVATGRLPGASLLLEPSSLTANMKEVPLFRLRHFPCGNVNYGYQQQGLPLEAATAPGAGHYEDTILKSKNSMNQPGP
In short: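 Plates coated with phospholipase C-γ substrate (10 μg/mL in TBS); reaction started with 30 ng/ml ALK and run 15 min at 37° C. Phosphorylated substrate detected with Eu-N1-labeled PT66 antibody. IC50 from sigmoidal variable-slope fit of percent inhibition vs log concentration.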

[2] = biological target: T2, c-Met (cytoplasmic domain) (Homo sapiens, UniProt P08581); assay: c-Met Kinase Assay (same methods as for ALK, with modifications); assay type: biochemical
T2 construct: 10 ng/mL c-Met (cytoplasmic domain, Invitrogen Corporation #PV3143); purchased Invitrogen Corporation PV3143
T2 sequence (P08581 956-1390 limits assumed): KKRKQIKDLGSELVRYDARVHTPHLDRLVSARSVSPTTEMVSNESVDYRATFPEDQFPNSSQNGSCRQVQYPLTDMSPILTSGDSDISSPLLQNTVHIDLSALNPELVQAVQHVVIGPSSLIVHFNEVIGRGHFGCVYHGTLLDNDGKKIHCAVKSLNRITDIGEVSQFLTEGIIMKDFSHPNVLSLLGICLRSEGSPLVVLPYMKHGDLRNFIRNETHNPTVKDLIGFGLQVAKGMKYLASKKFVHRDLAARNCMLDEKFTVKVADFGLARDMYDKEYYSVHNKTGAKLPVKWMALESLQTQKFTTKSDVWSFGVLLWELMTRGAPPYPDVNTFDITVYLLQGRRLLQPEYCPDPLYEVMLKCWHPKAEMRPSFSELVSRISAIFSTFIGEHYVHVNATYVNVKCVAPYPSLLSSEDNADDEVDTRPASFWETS
In short: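 Europium-labeled PT66 antibody (Eu-N1) detects substrate phosphorylation on wells coated with phospholipase C-γ at 10 μg/mL. The kinase, the cytoplasmic domain of c-Met at 10 ng/mL, starts the reaction, which proceeds 15 minutes at 37° C.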

[3] = 1 μM ATP (Km level), 30 ng/ml ALK, 37° C., 15 minutes, read-out: ALK Activity (ALK kinase inhibition, IC50 class)
[4] = 1 μM ATP (Km level), 10 ng/mL c-Met, read-out: cMet Activity (c-Met kinase inhibition, IC50 class)
[5] = ALK kinase inhibition, 1 μM ATP, read-out: ALK Activity
[6] = c-Met kinase inhibition, 1 μM ATP, read-out: cMet Activity
[7] = 1 μM ATP (Km level), read-out: ALK Activity (ALK Kinase Inhibition, IC50)
[8] = 1 μM ATP (Km level), read-out: cMet Activity (c-Met Kinase Inhibition, IC50)
[9] = ALK kinase inhibition, 1 μM ATP (Km level), read-out: ALK Activity
[10] = c-Met kinase inhibition, 1 μM ATP (Km level), read-out: cMet Activity

Compound: 3-{2-[2-(1-Acetyl-4-oxo-1,2,3,4,5,6-hexahydro-1,5-benzodiazepin-8-ylamino)-5-chloro-pyrimidin-4-ylamino]-phenoxy}-propionitrile [Example 1237]
- IC50 [1, 3]: < 0.1 µM
- IC50 [2, 4]: 0.1 to 1 µM

- IC50 [1, 5]: < 0.1 µM
- IC50 [2, 6]: 1 to 10 µM
Compound: COc1cc2c(cc1Nc1ncc(Cl)c(Nc3ccccc3S(=O)(=O)N3CCCC3)n1)NC(=O)CN(CC1CC1)C2 [Example 1668, 8-{5-Chloro-4-[2-(pyrrolidine-1-sulfonyl)-phenylamino]-pyrimidin-2-ylamino}-4-cyclopropylmethyl-7-methoxy-1,3,4,5-tetrahydro-benzo[e][1,4]diazepin-2-one]

- IC50 [1, 5]: < 0.1 µM
- IC50 [2, 6]: > 10 µM
Compound: COc1cc2c(cc1Nc1ncc(Cl)c(N[C@H]3[C@@H](C(N)=O)[C@@H]4C=C[C@H]3C4)n1)CCN(C[C@@H](C)O)CC2 [Example 1559, (1S,2S,3R,4R)-3-{5-Chloro-2-[3-((R)-2-hydroxy-propyl)-8-methoxy-2,3,4,5-tetrahydro-1H-3-benzazepin-7-ylamino]-pyrimidin-4-ylamino}-bicyclo[2.2.1]hept-5-ene-2-carboxylic acid amide]

- IC50 [1, 7]: 1 to 10 µM
- IC50 [2, 8]: > 10 µM
Compound: COCCN1CCc2cc(Nc3ncc(Cl)c(NC4C5C=CC(C5)C4c4nc5ccccc5[nH]4)n3)c(OC)cc2CC1 (stereo not drawn) [Example 610, N*4*-[(2-exo-3-exo)-3-(1H-Benzoimidazol-2-yl)-bicyclo[2.2.1]hept-5-en-2-yl]-5-chloro-N*2*-[8-methoxy-3-(2-methoxy-ethyl)-2,3,4,5-tetrahydro-1H-benzo[d]azepin-7-yl]-pyrimidine-2,4-diamine]

- IC50 [1, 9]: < 0.1 µM
- IC50 [2, 10]: 0.1 to 1 µM
Compound: C#CCN1CCc2ccc(Nc3ncc(Cl)c(Nc4ccccc4NS(C)(=O)=O)n3)cc2CC1 [Example 326, N-{2-[5-Chloro-2-(3-prop-2-ynyl-2,3,4,5-tetrahydro-1H-benzo[d]azepin-7-ylamino)-pyrimidin-4-ylamino]-phenyl}-methanesulfonamide]

- IC50 [1, 7]: < 0.1 µM
- IC50 [2, 8]: 0.1 to 1 µM
Compound: NC(=O)[C@@H]1[C@H]2CC[C@H](C2)[C@@H]1Nc1nc(Nc2ccc3c(c2)CCC(NCC(F)(F)F)CC3)ncc1Cl (stereo partly drawn) [Example 654, (1S,2R,3S,4R)-3-{5-Chloro-2-[7-(2,2,2-trifluoro-ethylamino)-6,7,8,9-tetrahydro-5H-benzocyclohepten-2-ylamino]-pyrimidin-4-ylamino}-bicyclo[2.2.1]heptane-2-carboxylic acid amide]

- IC50 [1, 3]: > 10 µM
- IC50 [2, 4]: > 10 µM
Compound: CCNC(=O)c1ccccc1Nc1nc(Nc2c(OC)ccc3c2CC(=O)N(CC)CC3)ncc1Cl [Example 1134, 2-[5-Chloro-2-(3-ethyl-7-methoxy-4-oxo-2,3,4,5-tetrahydro-1H-benzo[d]azepin-6-ylamino)-pyrimidin-4-ylamino]-N-ethyl-benzamide]

Compound: C#CCN1C2CCC1c1cc(Nc3ncc(Cl)c(Nc4ccccc4C(=O)NC)n3)ccc1C2 (stereo not shown) [Example 69, 2-[5-Chloro-2-(12-prop-2-ynyl-12-aza-tricyclo[7.2.1.0*2,7*]dodeca-2(7),3,5-trien-4-ylamino)-pyrimidin-4-ylamino]-N-methyl-benzamide]
- IC50 [1, 9]: < 0.1 µM
- IC50 [2, 10]: < 0.1 µM

- IC50 [1, 3]: < 0.1 µM
- IC50 [2, 4]: 1 to 10 µM
Compound: CNC(=O)c1ccc(N)cc1Nc1nc(Nc2ccc3c(c2)C(C)(C)CCC(=O)N3)ncc1Cl [Example 1239, 4-Amino-2-[5-chloro-2-(5,5-dimethyl-2-oxo-2,3,4,5-tetrahydro-1H-1-benzazepin-7-ylamino)-pyrimidin-4-ylamino]-N-methyl-benzamide]

- IC50 [1, 3]: < 0.1 µM
- IC50 [2, 4]: > 10 µM
Compound: COc1cc2c(cc1Nc1ncc(Cl)c(Nc3cccc(N4CCOCC4)c3)n1)CCN(CC(=O)N(C)C)CC2 [Example 1145, 2-{7-[5-Chloro-4-(3-morpholin-4-yl-phenylamino)-pyrimidin-2-ylamino]-8-methoxy-1,2,4,5-tetrahydro-benzo[d]azepin-3-yl}-N,N-dimethyl-acetamide]

- IC50 [1, 3]: < 0.1 µM
- IC50 [2, 4]: > 10 µM
Compound: COc1cc2c(cc1Nc1ncc(Cl)c(Nc3ccccc3S(=O)(=O)C(C)C)n1)CCC(N1CCOCC1)CC2 (stereo not shown) [Example 1050, 5-Chloro-N*2*-(3-methoxy-7-morpholin-4-yl-6,7,8,9-tetrahydro-5H-benzocyclohepten-2-yl)-N*4*-[2-(propane-2-sulfonyl)-phenyl]-pyrimidine-2,4-diamine]

- IC50 [1, 3]: < 0.1 µM
- IC50 [2, 4]: 1 to 10 µM
Compound: COc1cccnc1-c1ccccc1Nc1nc(Nc2ccc3c(c2)CCC(N2CCOCC2)CC3)ncc1Cl (stereo not shown) [Example 1018, 5-Chloro-N*4*-[2-(3-methoxy-pyridin-2-yl)-phenyl]-N*2*-(7-morpholin-4-yl-6,7,8,9-tetrahydro-5H-benzocyclohepten-2-yl)-pyrimidine-2,4-diamine]

- IC50 [1, 3]: < 0.1 µM
- IC50 [2, 4]: 0.1 to 1 µM
Compound: COCCN1CCc2ccc(Nc3ncc(Cl)c(Nc4ccccc4S(C)(=O)=O)n3)cc2CC1 [Example 1249, 5-Chloro-N(4)-(2-methanesulfonyl-phenyl)-N(2)-[3-(2-methoxy-ethyl)-2,3,4,5-tetrahydro-1H-3-benzazepin-7-yl]-pyrimidine-2,4-diamine]

- IC50 [1, 3]: < 0.1 µM
- IC50 [2, 4]: > 10 µM
Compound: COc1cc2c(cc1Nc1ncc(Cl)c(N[C@@H]3CCCC[C@H]3NS(C)(=O)=O)n1)CCN(CCS(C)(=O)=O)CC2 [Example 1122, N-((1R,2R)-2-{5-Chloro-2-[3-(2-methanesulfonyl-ethyl)-8-methoxy-2,3,4,5-tetrahydro-1H-benzo[d]azepin-7-ylamino]-pyrimidin-4-ylamino}-cyclohexyl)-methanesulfonamide]

- IC50 [1, 9]: < 0.1 µM
- IC50 [2, 10]: 1 to 10 µM
Compound: CCN1CCc2ccc(Nc3ncc(Cl)c(N[C@@H]4c5ccccc5C[C@@H]4O)n3)cc2CC1 [Example 235, (1R,2S)-1-[5-Chloro-2-(3-ethyl-2,3,4,5-tetrahydro-1H-benzo[d]azepin-7-ylamino)-pyrimidin-4-ylamino]-indan-2-ol]

Compound: CNC(=O)c1ccccc1Nc1nc(Nc2cc3c(cc2Cl)CC2CCC3N2CCOC)ncc1Cl (stereo not shown) [Example 88, 2-{5-Chloro-2-[5-chloro-12-(2-methoxy-ethyl)-12-aza-tricyclo[7.2.1.0*2,7*]dodeca-2(7),3,5-trien-4-ylamino]-pyrimidin-4-ylamino}-N-methyl-benzamide]
- IC50 [1, 9]: < 0.1 µM
- IC50 [2, 10]: 1 to 10 µM

- IC50 [1, 5]: < 0.1 µM
- IC50 [2, 6]: < 0.1 µM
Compound: O=C1CCCc2ccc(Nc3ncc(Cl)c(Nc4ccccc4S(=O)(=O)N4CCC(O)C4)n3)cc2N1 (stereo not shown) [Example 1493, 8-{5-Chloro-4-[2-(3-hydroxy-pyrrolidine-1-sulfonyl)-phenylamino]-pyrimidin-2-ylamino}-1,3,4,5-tetrahydro-benzo[b]azepin-2-one]

Compound: CNC(=O)c1ccccc1Nc1nc(Nc2ccc3c(c2)C2CCC(C3)N2CCOC)ncc1Cl (stereo not shown) [Example 68, 2-{5-Chloro-2-[12-(2-methoxy-ethyl)-12-aza-tricyclo[7.2.1.0*2,7*]dodeca-2(7),3,5-trien-4-ylamino]-pyrimidin-4-ylamino}-N-methyl-benzamide]
- IC50 [1, 9]: < 0.1 µM
- IC50 [2, 10]: < 0.1 µM

- IC50 [1, 5]: < 0.1 µM
- IC50 [2, 6]: < 0.1 µM
Compound: CN1C(=O)OCCc2cc(Nc3ncc(Cl)c(Nc4ccccc4OCC#N)n3)ccc21 [Example 1748, {2-[5-chloro-2-(5-methyl-6-oxo-5,6,8,9-tetrahydro-7-oxa-5-aza-benzocyclohepten-2-ylamino)-pyrimidin-4-ylamino]-phenoxy}-acetonitrile]

- IC50 [1, 7]: < 0.1 µM
- IC50 [2, 8]: > 10 µM
Compound: CCN1CCc2cc(Nc3ncc(Cl)c(Nc4ccc(N5CCN(C)CC5)cc4OC)n3)c(OC)cc2CC1=O [Example 772, 7-{5-Chloro-4-[2-methoxy-4-(4-methyl-piperazin-1-yl)-phenylamino]-pyrimidin-2-ylamino}-3-ethyl-8-methoxy-1,3,4,5-tetrahydro-benzo[d]azepin-2-one]

- IC50 [1, 5]: 1 to 10 µM
- IC50 [2, 6]: 0.1 to 1 µM
Compound: CNC(=O)c1cc(F)ccc1Nc1nc(Nc2ccc3c(c2)-c2nccn2CCC3)ncc1Cl [Example 1847, 2-[5-Chloro-2-(5,6-dihydro-4H-1,3a-diaza-benzo[e]azulen-9-ylamino)-pyrimidin-4-ylamino]-5-fluoro-N-methyl-benzamide]

- IC50 [1, 7]: < 0.1 µM
- IC50 [2, 8]: 1 to 10 µM
Compound: CCN1CCN(CC)c2cc(Nc3ncc(Cl)c(Nc4ccc5c(c4)CN(CCOC)CCS5)n3)ccc2C1 [Example 733, 5-Chloro-N(2)-(1,4-diethyl-2,3,4,5-tetrahydro-1H-benzo[e][1,4]diazepin-8-yl)-N(4)-[8-(2-methoxy-ethyl)-6,7,8,9-tetrahydro-5-thia-8-aza-benzocyclohepten-2-yl]-pyrimidine-2,4-diamine]

- IC50 [1, 9]: < 0.1 µM
- IC50 [2, 10]: 0.1 to 1 µM
Compound: NC(=O)C1C2CCC(C2)C1Nc1nc(Nc2ccc3c(c2)CCN(CC(O)C(F)(F)F)CC3)ncc1Cl [Example 331, (2-exo,3-exo)-3-{5-Chloro-2-[3-((S)-3,3,3-trifluoro-2-hydroxy-propyl)-2,3,4,5-tetrahydro-1H-benzo[d]azepin-7-ylamino]-pyrimidin-4-ylamino}-bicyclo[2.2.1]heptane-2-carboxylic acid amide]
